{"source": "patent US20120172289A1", "about": "“MULTIFUNCTIONAL GLYCOPEPTIDE ANTIBIOTIC DERIVATIVES FOR FLUORESCENT IMAGING AND PHOTOACTIVE ANTIMICROBIAL THERAPY” (NANYANG TECHNOLOGICAL UNIVERSITY, priority 2010, published 2012)", "origin": "cited, not measured here", "tested_on": "D-Ala-D-Lac", "conditions": "mutation of peptidoglycan sequence in VRE", "data": [{"compound": "CN[C@H](CC(C)C)C(=O)N[C@H]1C(=O)N[C@@H](CC(N)=O)C(=O)N[C@H]2C(=O)N[C@H]3C(=O)N[C@H](C(=O)N[C@H](C(=O)O)c4cc(O)cc(O)c4-c4cc3ccc4O)[C@H](O)c3ccc(c(Cl)c3)Oc3cc2cc(c3O[C@@H]2O[C@H](CO)[C@@H](O)[C@H](O)[C@H]2O[C@H]2C[C@](C)(N)[C@H](O)[C@H](C)O2)Oc2ccc(cc2Cl)[C@H]1O", "note": "[Vancomycin]", "values": [{"measurement": "decrease of binding affinity, D-Ala-D-Ala to D-Ala-D-Lac", "value": "~10^3 times"}]}]}
